Key:
Assay type in all cases: in vivo
[1] = test system: APESV (Apera spica-venti); test: greenhouse pre-emergence herbicidal test; details: 1000 g/ha
Procedure, shortened: (§1)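 Seeds were sown in loamy sand with about 3.0% humus, and compounds suspended or emulsified in water were sprayed right after sowing. Pots were kept under transparent hoods until rooting at 10-25° C. or 20-35° C. depending on species, and damage was scored 0-100 after 2 to 4 weeks.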

[2] = test system: AMARE (Amaranthus retroflexus); test: greenhouse pre-emergence herbicidal test; details: 1000 g/ha
Description: The seeds of the test plants were sown separately for each species. For the pre-emergence treatment, the active ingredients, which had been suspended or emulsified in water, were applied directly after sowing by means of finely distributing nozzles. The containers were irrigated gently to promote germination and growth and subsequently covered with transparent plastic hoods until the plants had rooted. This cover caused uniform germination of the test plants, unless this had been impaired by the active ingredients. Depending on the species, the plants were kept at 10-25° C. or 20-35° C., respectively. The test period extended over 2 to 4 weeks. During this time, the plants were tended, and their response to the individual treatments was evaluated. […] A moderate herbicidal activity is given at values of at least 60, a good herbicidal activity is given at values of at least 70, and a very good herbicidal activity is given at values of at least 85. The plants used in the greenhouse experiments were of the following species: [table]

[3] = test system: MATIN (Matricaria maritima); test: greenhouse pre-emergence herbicidal test; details: 2000 g/ha
Procedure, shortened: as §1

POAAN (Poa annua) = test: greenhouse pre-emergence herbicidal test
Procedure, shortened: as §1

THLAR (Thlaspi arvense) = test: greenhouse pre-emergence herbicidal test; details: 0.125 kg/ha
Procedure, shortened: as §1

[4] = test system: AMARE (Amaranthus retroflexus); test: greenhouse post-emergence herbicidal test; details: 62 g/ha
Procedure, shortened: (§2)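 Post-emergence greenhouse test on plants grown to 3–15 cm in loamy sand (~3.0% humus), sprayed with active ingredient suspended or emulsified in water. Plants held at 10-25 °C or 20-35 °C by species for 2 to 4 weeks, then damage scored visually 0–100 (100 = complete destruction of aerial parts, 0 = no damage).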

SETVI (Setaria viridis) = test: greenhouse post-emergence herbicidal test; details: 62 g/ha
Procedure, shortened: as §2

VIOAR (Viola arvensis) = test: greenhouse pre-emergence herbicidal test; details: 125 g/ha
Procedure, shortened: as §1

`COc1cc(F)c(Nc2nc(N)nc(C(C)(C)F)n2)c(F)c1` [Example 116] was tested, and the herbicidal activity [1] was “very good (a very good herbicidal activity is given at values of at least 85)” and the herbicidal activity [2] was “good (a good herbicidal activity is given at values of at least 70)”.
In the case of `CC(O)c1nc(N)nc(Nc2c(F)c(F)c(F)c(F)c2F)n1` (centres unmarked) [Example 69], the herbicidal activity [3] is reported as “very good (a very good herbicidal activity is given at values of at least 85)” and the herbicidal activity (POAAN (Poa annua); 2000 g/ha) is reported as “very good (a very good herbicidal activity is given at values of at least 85)”.
With `CC(C)(F)c1nc(N)nc(Nc2cc(C(F)(F)F)cc(C(F)(F)F)c2)n1` [Example 46] the herbicidal activity (THLAR (Thlaspi arvense)) was “very good (a very good herbicidal activity is given at values of at least 85)”.
In the case of `CC(=O)N(c1nc(N)nc(C(C)(C)F)n1)c1c(F)c(F)c(F)c(F)c1F` [Example 291], the herbicidal activity [3] is reported as “very good (a very good herbicidal activity is given at values of at least 85)” and the herbicidal activity (POAAN (Poa annua); 2000 g/ha) is reported as “very good (a very good herbicidal activity is given at values of at least 85)”.
With `CC(C)(C)C(=O)N(c1nc(N)nc(C(C)(C)C)n1)c1c(F)c(F)c(F)c(F)c1F` [Example 283] the herbicidal activity [4] was “very good (a very good herbicidal activity is given at values of at least 85)” and the herbicidal activity (SETVI (Setaria viridis)) was “good (a good herbicidal activity is given at values of at least 70)”.
For `CC(C)(F)c1nc(N)nc(Nc2c(F)c(F)c(Cl)c(F)c2F)n1` [Example 128], the herbicidal activity (POAAN (Poa annua); 125 g/ha) was “very good (a very good herbicidal activity is given at values of at least 85)” and the herbicidal activity (VIOAR (Viola arvensis)) was “good (a good herbicidal activity is given at values of at least 70)”.

From patent publication US9549558B2, “Herbicidal azines” (BASF SE, priority 2012, dated 2017)
